{"source": "patent US9273038B2", "about": "“Solid forms of an ion channel modulator” (Gilead Sciences, Inc., priority 2014, dated 2016)", "type_in_all_cases": "physicochemical", "key": {"[1]": {"experiment": "Dynamic vapor sorption (DVS) analysis", "protocol": "The solids with unique XRPD patterns were characterized by DSC, TGA, ^1H NMR, KF and DVS. All XRPD patterns were obtained in the experimental setting as follows: 45 kV, 40 mA, Kα1=1.5406 Å, scan range 2 to 40°, step size 0.0167°, counting time: 15.24 s. DSC and TGA analyses were performed using 10° C./min heating rate over the 20 to 350° C. temperature range."}, "[2]": {"experiment": "Hydrate screen in ethanol/water and isopropanol/water: solubility and relative form stability", "details": "for Form III Solubility mg/g (1 day): from 50:50 w/w mixture of Form I & III", "protocol": "A hydrate screen starting from Form I was also conducted to evaluate whether hydrates of Compound I exist. The hydrate screen was conducted in ethanol/water (Table 6) and isopropanol/water (Table 7) mixtures, and in both cases, a new polymorph of Compound I was discovered (denoted as Form III).\nFrom the initial hydrate screens presented in Table 6 and Table 7 no apparent trends were observed. In this case, all slurries of Form I in EtOH/water or IPA/water mixtures remained unchanged after 2 weeks (Table 8 and Table 9). Since Form III has been observed previously under the same conditions, it was suspected that the lack of form conversion is mainly due to slow kinetics. […] Attempts to determine the relative stability between Forms I and III at lower water activities were unsuccessful since Form I either was too soluble or oiled out at water activities of 0.8 or below."}, "[3]": {"experiment": "Stable form screen of Compound I Form IV (slurry at room temperature)", "details": "for solubility at 24 h: slurry of the solid in solvent, thermodynamic from solid, read-out: Solubility after 24 h", "protocol": "Compound I Form IV (about 50 mg) was slurried in 0.5-1 mL of solvent and allowed to stir at room temperature for 2 weeks. […] Similar results were observed after 2 weeks of equilibration (Table 15)."}, "[4]": {"experiment": "Thermal stability of Compound I Form IV under vacuum at 45° C. (XRPD, HPLC)", "details": "for HPLC (% AN) / XRPD / HPLC (% ES): drying under vacuum at 45° C.", "protocol": "Drying study was also performed of Compound I Form IV under vacuum at 45° C. in an attempt to determine the chemical stability of this material by HPLC as well as form stability by XRPD."}, "[5]": {"experiment": "Abbreviated stable form screen of Compound I Form V (slurry at room temperature)", "details": "for solubility at 3 days: slurry of the solid in solvent, organic solvent or mixture, thermodynamic from solid, solid converted to Form VI", "protocol": "Abbreviated stable form screen of Compound I Four V was performed by slurrying […] (about 100 mg) in IPA, IPAc and MTBE (1-2 mL) in an attempt to obtain anhydrous form as summarized in Table 16. The first aliquot (about 0.5 mL) was taken for XRPD analysis and solubility assessment after 3 days of equilibration at room temperature. Solids were analyzed before and after overnight drying at 45° C. […] After two weeks equilibration at room temperature no form change was observed. XRPD patterns of all samples were consistent with Compound I Form VI."}, "[6]": {"details": "under vacuum at 45° C., 2 and 7 days"}}, "note": "Read-outs that look alike come from different tables or passages of the source."}
{"compound": "O=C1c2cc(-c3ccc(OC(F)(F)F)cc3)ccc2OCCN1Cc1ncccn1.O=S(=O)(O)c1ccccc1", "note": "[Compound I Form VI, 4-(pyrimidin-2-ylmethyl)-7-(4-(trifluoromethoxy)phenyl)-3,4-dihydrobenzo[f][1,4]oxazepin-5(2H)-one benzene sulfonic acid]", "values": [{"measurement": "Hygroscopicity by DVS (in words)", "setting": "[1]", "result": "non-hygroscopic"}, {"measurement": "Moisture uptake at 90% RH (DVS)", "setting": "[1]", "result": "about 0.1%"}, {"measurement": "Moisture uptake at 90% RH (DVS)", "setting": "[1]; listed as Form VI", "result": 0.11, "unit": "wt % at"}, {"measurement": "Hygroscopicity by DVS (in words)", "setting": "[1]; listed as Form VI", "result": "Non-"}]}
{"compound": "O=C(O)C(=O)O.O=C1c2cc(-c3ccc(OC(F)(F)F)cc3)ccc2OCCN1Cc1ncccn1", "note": "[Compound I Form XVIII, 4-(pyrimidin-2-ylmethyl)-7-(4-(trifluoromethoxy)phenyl)-3,4-dihydrobenzo[f][1,4]oxazepin-5(2H)-one oxalate]", "values": [{"measurement": "Hygroscopicity by DVS (in words)", "setting": "[1]", "result": "non-hygroscopic"}, {"measurement": "Moisture uptake at 90% RH (DVS)", "setting": "[1]", "result": "about 0.075%"}]}
{"compound": "O=C1c2cc(-c3ccc(OC(F)(F)F)cc3)ccc2OCCN1Cc1ncccn1", "note": "[Compound I Form III, 4-(pyrimidin-2-ylmethyl)-7-(4-(trifluoromethoxy)phenyl)-3,4-dihydrobenzo[f][1,4]oxazepin-5(2H)-one]", "values": [{"measurement": "Form III Solubility mg/g (1 day)", "setting": "[2]; 10% EtOH/water, water activity >0.9", "result": 0.06, "unit": "mg/g"}, {"measurement": "Form III Solubility mg/g (1 day)", "setting": "[2]; 10% IPA/water, water activity >0.9", "result": 0.06, "unit": "mg/g"}, {"measurement": "Form III Solubility mg/g (1 day)", "setting": "[2]; 20% EtOH/water, water activity 0.8-0.9", "result": 0.10, "unit": "mg/g"}, {"measurement": "Form III Solubility mg/g (1 day)", "setting": "[2]; 20% IPA/water, water activity >0.9", "result": 0.19, "unit": "mg/g"}, {"measurement": "Form III Solubility mg/g (1 day)", "setting": "[2]; 25% IPA/water, water activity >0.9", "result": 0.78, "unit": "mg/g"}, {"measurement": "Form III Solubility mg/g (1 day)", "setting": "[2]; 30% EtOH/water, water activity 0.8-0.9", "result": 0.49, "unit": "mg/g"}, {"measurement": "Form III Solubility mg/g (1 day)", "setting": "[2]; 30% IPA/water, water activity >0.9", "result": 3.2, "unit": "mg/g"}, {"measurement": "Form III Solubility mg/g (1 day)", "setting": "[2]; 35% EtOH/water, water activity 0.8-0.9", "result": 1.8, "unit": "mg/g"}, {"measurement": "Relative polymorph stability (competition slurry Form I/Form III)", "setting": "[2]; water activities above 0.8, EtOH/water or IPA/water", "result": "the most stable polymorph of Compound I"}]}
{"compound": "CS(=O)(=O)O.O=C1c2cc(-c3ccc(OC(F)(F)F)cc3)ccc2OCCN1Cc1ncccn1", "note": "[Compound I Form IV, 4-(pyrimidin-2-ylmethyl)-7-(4-(trifluoromethoxy)phenyl)-3,4-dihydrobenzo[f][1,4]oxazepin-5(2H)-one methanesulfonic acid]", "values": [{"measurement": "Form stability in slurry by XRPD (in words)", "setting": "[3]; 17 solvents, 24 h, similar after 2 weeks, water afforded Form III (wet), Form III + Form II after air drying", "result": "no form change in all solvents except water"}, {"measurement": "solubility at 24 h", "setting": "[3]; aqueous with cosolvent or surfactant or cyclodextrin, EtOH/water 0.8 water activity (480 μL H2O and 520 μL EtOH), all solids dissolved", "result": "> 150000", "unit": "µg/mL"}, {"measurement": "solubility at 24 h", "setting": "[3]; organic solvent or mixture, 2-Me-THF", "result": 2300, "unit": "µg/mL"}, {"measurement": "solubility at 24 h", "setting": "[3]; organic solvent or mixture, Acetone", "result": 4160, "unit": "µg/mL"}, {"measurement": "solubility at 24 h", "setting": "[3]; organic solvent or mixture, DCM", "result": 5480, "unit": "µg/mL"}, {"measurement": "solubility at 24 h", "setting": "[3]; organic solvent or mixture, EtOAc", "result": 1260, "unit": "µg/mL"}, {"measurement": "solubility at 24 h", "setting": "[3]; organic solvent or mixture, EtOH", "result": 12200, "unit": "µg/mL"}, {"measurement": "solubility at 24 h", "setting": "[3]; organic solvent or mixture, Heptane", "result": 100, "unit": "µg/mL"}, {"measurement": "solubility at 24 h", "setting": "[3]; organic solvent or mixture, IPA", "result": 5420, "unit": "µg/mL"}, {"measurement": "solubility at 24 h", "setting": "[3]; organic solvent or mixture, IPAc", "result": 780, "unit": "µg/mL"}, {"measurement": "solubility at 24 h", "setting": "[3]; organic solvent or mixture, MEK", "result": 3140, "unit": "µg/mL"}, {"measurement": "solubility at 24 h", "setting": "[3]; organic solvent or mixture, MIBK", "result": 1420, "unit": "µg/mL"}, {"measurement": "solubility at 24 h", "setting": "[3]; organic solvent or mixture, MTBE", "result": 340, "unit": "µg/mL"}, {"measurement": "solubility at 24 h", "setting": "[3]; organic solvent or mixture, MeCN", "result": 4820, "unit": "µg/mL"}, {"measurement": "solubility at 24 h", "setting": "[3]; organic solvent or mixture, MeOH", "result": 40400, "unit": "µg/mL"}, {"measurement": "solubility at 24 h", "setting": "[3]; organic solvent or mixture, THF", "result": 7940, "unit": "µg/mL"}, {"measurement": "solubility at 24 h", "setting": "[3]; organic solvent or mixture, Toluene", "result": 360, "unit": "µg/mL"}, {"measurement": "solubility at 24 h", "setting": "[3]; water, Water, solid converted to Form III (wet)", "result": 4340, "unit": "µg/mL"}, {"measurement": "Hygroscopicity by DVS (in words)", "setting": "[1]", "result": "slightly hygroscopic"}, {"measurement": "Moisture uptake at 90% RH (DVS)", "setting": "[1]", "result": 1.0, "unit": "wt %"}, {"measurement": "Moisture uptake at 90% RH (DVS)", "setting": "[1]; listed as Form IV", "result": 1.01, "unit": "wt % at"}, {"measurement": "Hygroscopicity by DVS (in words)", "setting": "[1]; listed as Form IV", "result": "Slightly"}, {"measurement": "HPLC (% AN)", "setting": "[4]; 0 days", "result": 100, "unit": "% AN"}, {"measurement": "XRPD", "setting": "[4]; 0 days", "result": "Form IV"}, {"measurement": "HPLC (% ES)", "setting": "[4]; 0 days, theoretical strength 81.21%", "result": 80.2, "unit": "% ES"}, {"measurement": "HPLC (% AN)", "setting": "[4]; 2 days", "result": 100, "unit": "% AN"}, {"measurement": "XRPD", "setting": "[4]; 2 days", "result": "Form IV"}, {"measurement": "HPLC (% ES)", "setting": "[4]; 2 days, theoretical strength 81.21%", "result": 85.4, "unit": "% ES"}, {"measurement": "HPLC (% AN)", "setting": "[4]; 7 days", "result": 100, "unit": "% AN"}, {"measurement": "XRPD", "setting": "[4]; 7 days", "result": "Form IV"}, {"measurement": "HPLC (% ES)", "setting": "[4]; 7 days, theoretical strength 81.21%", "result": 82.1, "unit": "% ES"}, {"measurement": "Form stability by XRPD during drying (in words)", "setting": "[4]; [6]", "result": "did not show any form change"}, {"measurement": "HPLC purity during drying", "setting": "[4]; [6]", "result": "100 % (AUC)"}, {"measurement": "HPLC strength during drying", "setting": "[4]; under vacuum at 45° C., 2 and 7 days, theoretical strength 81.21%", "result": "80 to 85", "unit": "%"}]}
{"compound": "4-(pyrimidin-2-ylmethyl)-7-(4-(trifluoromethoxy)phenyl)-3,4-dihydrobenzo[f][1,4]oxazepin-5(2H)-one edisylate [Compound I Form XVII]", "values": [{"measurement": "Hygroscopicity by DVS (in words)", "setting": "[1]", "result": "slightly hygroscopic"}, {"measurement": "Moisture uptake at 90% RH (DVS)", "setting": "[1]", "result": "about 1%"}]}
{"compound": "CCS(=O)(=O)O.O=C1c2cc(-c3ccc(OC(F)(F)F)cc3)ccc2OCCN1Cc1ncccn1", "note": "[Compound I Form XVI, 4-(pyrimidin-2-ylmethyl)-7-(4-(trifluoromethoxy)phenyl)-3,4-dihydrobenzo[f][1,4]oxazepin-5(2H)-one esylate]", "values": [{"measurement": "Relative humidity of deliquescence (DVS)", "setting": "[1]", "result": "around 90 % RH"}]}
{"compound": "O=C1c2cc(-c3ccc(OC(F)(F)F)cc3)ccc2OCCN1Cc1ncccn1.O=S(=O)(O)c1ccccc1", "note": "[Compound I Form V, 4-(pyrimidin-2-ylmethyl)-7-(4-(trifluoromethoxy)phenyl)-3,4-dihydrobenzo[f][1,4]oxazepin-5(2H)-one benzene sulfonic acid]", "values": [{"measurement": "Form stability in slurry by XRPD (in words)", "setting": "[5]; IPA, IPAc and MTBE, 3 days, no further change after two weeks", "result": "all solids converted to anhydrous Compound I Form VI"}, {"measurement": "solubility at 3 days", "setting": "[5]; IPA", "result": 16100, "unit": "µg/mL"}, {"measurement": "solubility at 3 days", "setting": "[5]; IPAc", "result": 2200, "unit": "µg/mL"}, {"measurement": "solubility at 3 days", "setting": "[5]; MTBE", "result": 460, "unit": "µg/mL"}]}
